# Measurements: patent US10131657B2, “Bromodomain inhibitors” (AbbVie Inc., priority 2013, dated 2018)
# Tested on: breast cancer cell line MX-1
# Assay: MX-1 cell line proliferation assay, Method A
# Assay type: cell-based
# Conditions: Homo sapiens, MX1; MX-1 cells, 96-well, 72 hours, Cell Titer Glo; read-out: Cellular proliferation: EC50 Method A
# Outline: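 MX-1 breast cancer cells (5000/well) were attached overnight in RPMI 1640 with 10% FBS, then exposed for 3 days to compound at 0.0001–3 μM final. Cell Titer Glo luminescence was normalized to DMSO controls, and EC50s were obtained by sigmoidal fitting.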
row,EC50 [µM],Compound
1,0.156,"COCCN[C@H]1CC[C@H](Nc2ccc(S(C)(=O)=O)cc2-c2cn(C)c(=O)c3[nH]ccc23)CC1 [Example 111, 4-[2-({trans-4-[(2-methoxyethyl)amino]cyclohexyl}amino)-5-(methylsulfonyl)phenyl]-6-methyl-1,6-dihydro-7H-pyrrolo[2,3-c]pyridin-7-one]"
2,0.142,"CSCCCN[C@H]1CC[C@H](Nc2ccc(S(C)(=O)=O)cc2-c2cn(C)c(=O)c3[nH]ccc23)CC1 [Example 112, 6-methyl-4-{2-[(trans-4-{[3-(methylsulfanyl)propyl]amino}cyclohexyl)amino]-5-(methylsulfonyl)phenyl}-1,6-dihydro-7H-pyrrolo[2,3-c]pyridin-7-one]"
3,0.0195,"Cn1cc(-c2cc(S(C)(=O)=O)ccc2N[C@H]2CC[C@H](NCc3ccc(Cl)cc3)CC2)c2cc[nH]c2c1=O [Example 113, 4-[2-({trans-4-[(4-chlorobenzyl)amino]cyclohexyl}amino)-5-(methylsulfonyl)phenyl]-6-methyl-1,6-dihydro-7H-pyrrolo[2,3-c]pyridin-7-one]"
4,0.762,"Cn1cc(-c2cc(S(C)(=O)=O)ccc2Oc2ccc(F)cc2F)c2cc(CN3CCN(c4nccs4)CC3)[nH]c2c1=O [Example 114, 4-[2-(2,4-difluorophenoxy)-5-(methylsulfonyl)phenyl]-6-methyl-2-{[4-(1,3-thiazol-2-yl)piperazin-1-yl]methyl}-1,6-dihydro-7H-pyrrolo[2,3-c]pyridin-7-one]"
5,0.411,"Cn1cc(-c2cc(S(C)(=O)=O)ccc2Oc2ccc(F)cc2F)c2cc(CN3CCN(C4CC4)CC3)[nH]c2c1=O [Example 115, 2-[(4-cyclopropylpiperazin-1-yl)methyl]-4-[2-(2,4-difluorophenoxy)-5-(methylsulfonyl)phenyl]-6-methyl-1,6-dihydro-7H-pyrrolo[2,3-c]pyridin-7-one]"
6,0.183,"Cn1cc(-c2cc(S(C)(=O)=O)ccc2Oc2ccc(F)cc2F)c2cc(CN3CCN(C4CCOCC4)CC3)[nH]c2c1=O [Example 116, 4-[2-(2,4-difluorophenoxy)-5-(methylsulfonyl)phenyl]-6-methyl-2-{[4-(tetrahydro-2H-pyran-4-yl)piperazin-1-yl]methyl}-1,6-dihydro-7H-pyrrolo[2,3-c]pyridin-7-one]"
7,0.249,"CCS(=O)(=O)c1ccc(Oc2ccc(F)cc2F)c(-c2cn(C)c(=O)c3[nH]c(-c4ccnn4-c4ccccc4)cc23)c1 [Example 117, 4-[2-(2,4-difluorophenoxy)-5-(ethylsulfonyl)phenyl]-6-methyl-2-(1-phenyl-1H-pyrazol-5-yl)-1,6-dihydro-7H-pyrrolo[2,3-c]pyridin-7-one]"
8,1.51,"CCNC(=O)c1cc2c(-c3cc(S(=O)(=O)CC)ccc3Oc3c(C)cccc3NCC3CC3)cn(C)c(=O)c2[nH]1 [Example 119, 4-[2-{2-[(cyclopropylmethyl)amino]-6-methylphenoxy}-5-(ethylsulfonyl)phenyl]-N-ethyl-6-methyl-7-oxo-6,7-dihydro-1H-pyrrolo[2,3-c]pyridine-2-carboxamide]"
9,0.606,"CN1CCC(N2CCN(Cc3cc4c(-c5cc(S(C)(=O)=O)ccc5Oc5ccc(F)cc5F)cn(C)c(=O)c4[nH]3)CC2)CC1 [Example 125, 4-[2-(2,4-difluorophenoxy)-5-(methylsulfonyl)phenyl]-6-methyl-2-{[4-(1-methylpiperidin-4-yl)piperazin-1-yl]methyl}-1,6-dihydro-7H-pyrrolo[2,3-c]pyridin-7-one]"
10,0.128,"Cn1cc(-c2cc(S(C)(=O)=O)ccc2Oc2ccc(F)cc2F)c2cc(CN3CCOCC3c3ccco3)[nH]c2c1=O (centres unmarked) [Example 127, 4-[2-(2,4-difluorophenoxy)-5-(methylsulfonyl)phenyl]-2-{[3-(furan-2-yl)morpholin-4-yl]methyl}-6-methyl-1,6-dihydro-7H-pyrrolo[2,3-c]pyridin-7-one]"
11,0.249,"Cc1cc(C)n(C2CN(Cc3cc4c(-c5cc(S(C)(=O)=O)ccc5Oc5ccc(F)cc5F)cn(C)c(=O)c4[nH]3)C2)n1 [Example 129, 4-[2-(2,4-difluorophenoxy)-5-(methylsulfonyl)phenyl]-2-{[3-(3,5-dimethyl-1H-pyrazol-1-yl)azetidin-1-yl]methyl}-6-methyl-1,6-dihydro-7H-pyrrolo[2,3-c]pyridin-7-one]"
12,0.337,"Cn1cc(-c2cc(S(C)(=O)=O)ccc2Oc2ccc(F)cc2F)c2cc(CN3CCC(N4CCOCC4)CC3)[nH]c2c1=O [Example 130, 4-[2-(2,4-difluorophenoxy)-5-(methylsulfonyl)phenyl]-6-methyl-2-{[4-(morpholin-4-yl)piperidin-1-yl]methyl}-1,6-dihydro-7H-pyrrolo[2,3-c]pyridin-7-one]"
13,0.0477,"CCS(=O)(=O)Nc1ccc(Oc2ccc(F)cc2F)c(-c2cn(C)c(=O)c3[nH]c(C#CCOC)cc23)c1 [Example 163, N-{4-(2,4-difluorophenoxy)-3-[2-(3-methoxyprop-1-yn-1-yl)-6-methyl-7-oxo-6,7-dihydro-1H-pyrrolo[2,3-c]pyridin-4-yl]phenyl}ethanesulfonamide]"

# Tested on: breast cancer cell line MX-1
# Assay: MX-1 cell line proliferation assay, Method B
# Assay type: cell-based
# Conditions: Homo sapiens, MX1; MX-1 cells, 384-well, 72 hours, Cell Titer Glo; read-out: Cellular proliferation: EC50 Method B
# Procedure: The impact of compounds of the Examples on cancer cell proliferation was determined using the breast cancer cell line MX-1 (ATCC) in a 3-day proliferation assay and the data are reported in Table 1.
# MX-1 cells were maintained in RPMI 1640 medium (Sigma) supplemented with 10% FBS at 37° C. and an atmosphere of 5% CO2. For compound testing, MX-1 cells were plated in 384-well white with clear, flat bottom plates at a density of 750 cells/well in 25 μL of culture media and incubated at 370 overnight to allow cell adhesion and spreading. Ten point compound dilution series were prepared in DMSO via a 3-fold serial dilution from either 10 μM or 1 μM stock and added directly to the appropriate wells of the MX-1 cell plate by an ECHO liquid handler (Labcyte). The final compound concentrations in the wells were 10, 3.25, 1, 0.25, 0.124, 0.040, 0.0124, 0.0031, 0.0015 and 0.0005 μM or 1, 0.33, 0.1, 0.025, 0.0124, 0.004, 0.0012, 0.0003, 0.00015, 0.00005 μM, depending on the concentration of the compound stock solution.
# Luminescence readings from the Cell Titer Glo assay were normalized to the DMSO treated cells and analyzed using Accelrys Assay Explorer 3.3 software with sigmoidal curve fitting to obtain EC50s. The minimum significant ratio (MSR) was determined to evaluate assay reproducibility (Eastwood et al., (2006) J Biomol Screen, 11: 253-261). The overall MSR was determined to be 3.3 and a moving MSR (last six run MSR overtime) has averaged 2.1.
row,EC50 [µM],Compound
1,0.827,"Cc1noc(C2CCCN2Cc2cc3c(-c4cc(S(C)(=O)=O)ccc4Oc4ccc(F)cc4F)cn(C)c(=O)c3[nH]2)n1 (centres unmarked) [Example 131, 4-[2-(2,4-difluorophenoxy)-5-(methylsulfonyl)phenyl]-6-methyl-2-{[2-(3-methyl-1,2,4-oxadiazol-5-yl)pyrrolidin-1-yl]methyl}-1,6-dihydro-7H-pyrrolo[2,3-c]pyridin-7-one]"
2,0.653,"Cn1cc(-c2cc(S(C)(=O)=O)ccc2Oc2ccc(F)cc2F)c2cc(CN3CCN(c4ccccn4)CC3)[nH]c2c1=O [Example 132, 4-[2-(2,4-difluorophenoxy)-5-(methylsulfonyl)phenyl]-6-methyl-2-{[4-(pyridin-2-yl)piperazin-1-yl]methyl}-1,6-dihydro-7H-pyrrolo[2,3-c]pyridin-7-one]"
3,0.238,"CCNC(=O)/C=C/c1cc2c(-c3cc(S(=O)(=O)CC)ccc3Oc3c(C)cccc3C)cn(C)c(=O)c2[nH]1 [Example 134, (2E)-3-{4-[2-(2,6-dimethylphenoxy)-5-(ethylsulfonyl)phenyl]-6-methyl-7-oxo-6,7-dihydro-1H-pyrrolo[2,3-c]pyridin-2-yl}-N-ethylprop-2-enamide]"
4,> 1,"Cc1cccc(C)c1Oc1ccc(S(C)(=O)=O)cc1-c1cn(C)c(=O)c2[nH]c(-c3nc(C4CCCCC4)no3)cc12 [Example 136, 2-(3-cyclohexyl-1,2,4-oxadiazol-5-yl)-4-[2-(2,6-dimethylphenoxy)-5-(methylsulfonyl)phenyl]-6-methyl-1,6-dihydro-7H-pyrrolo[2,3-c]pyridin-7-one]"
5,> 1,"Cc1cccc(C)c1Oc1ccc(S(C)(=O)=O)cc1-c1cn(C)c(=O)c2[nH]c(-c3nc(-c4ccccc4)no3)cc12 [Example 137, 4-[2-(2,6-dimethylphenoxy)-5-(methylsulfonyl)phenyl]-6-methyl-2-(3-phenyl-1,2,4-oxadiazol-5-yl)-1,6-dihydro-7H-pyrrolo[2,3-c]pyridin-7-one]"
6,0.465,"Cc1cccc(C)c1Oc1ccc(S(C)(=O)=O)cc1-c1cn(C)c(=O)c2[nH]c(-c3nc(-c4cccnc4)no3)cc12 [Example 138, 4-[2-(2,6-dimethylphenoxy)-5-(methylsulfonyl)phenyl]-6-methyl-2-[3-(pyridin-3-yl)-1,2,4-oxadiazol-5-yl]-1,6-dihydro-7H-pyrrolo[2,3-c]pyridin-7-one]"
7,0.532,"Cc1cccc(C)c1Oc1ccc(S(C)(=O)=O)cc1-c1cn(C)c(=O)c2[nH]c(-c3nc(-c4ccccn4)no3)cc12 [Example 139, 4-[2-(2,6-dimethylphenoxy)-5-(methylsulfonyl)phenyl]-6-methyl-2-[3-(pyridin-2-yl)-1,2,4-oxadiazol-5-yl]-1,6-dihydro-7H-pyrrolo[2,3-c]pyridin-7-one]"
8,0.491,"Cc1cccc(C)c1Oc1ccc(S(C)(=O)=O)cc1-c1cn(C)c(=O)c2[nH]c(-c3nc(-c4cnccn4)no3)cc12 [Example 140, 4-[2-(2,6-dimethylphenoxy)-5-(methylsulfonyl)phenyl]-6-methyl-2-[3-(pyrazin-2-yl)-1,2,4-oxadiazol-5-yl]-1,6-dihydro-7H-pyrrolo[2,3-c]pyridin-7-one]"
9,0.443,"Cc1cccc(C)c1Oc1ccc(S(C)(=O)=O)cc1-c1cn(C)c(=O)c2[nH]c(-c3nc(C4CCOCC4)no3)cc12 [Example 141, 4-[2-(2,6-dimethylphenoxy)-5-(methylsulfonyl)phenyl]-6-methyl-2-[3-(tetrahydro-2H-pyran-4-yl)-1,2,4-oxadiazol-5-yl]-1,6-dihydro-7H-pyrrolo[2,3-c]pyridin-7-one]"
10,0.615,"Cc1cccc(C)c1Oc1ccc(S(C)(=O)=O)cc1-c1cn(C)c(=O)c2[nH]c(-c3nc(-c4cscn4)no3)cc12 [Example 142, 4-[2-(2,6-dimethylphenoxy)-5-(methylsulfonyl)phenyl]-6-methyl-2-[3-(1,3-thiazol-4-yl)-1,2,4-oxadiazol-5-yl]-1,6-dihydro-7H-pyrrolo[2,3-c]pyridin-7-one]"
